According to paper PMC12865480 (Pharmaceuticals, 2025):
Where “and” joins values, the source holds several entries; their conditions need not be identical. Equal values may be shown once. Read-outs that look alike come from different tables or passages of the source.

Tests used:
σ2 receptor = molecular target: T1, σ2 receptor (Rattus norvegicus, UniProt Q5U3Y7); test: biochemical; type: binding; details: read-out: Ki ± SEM σ2
T1 sequence (Q5U3Y7 1-176): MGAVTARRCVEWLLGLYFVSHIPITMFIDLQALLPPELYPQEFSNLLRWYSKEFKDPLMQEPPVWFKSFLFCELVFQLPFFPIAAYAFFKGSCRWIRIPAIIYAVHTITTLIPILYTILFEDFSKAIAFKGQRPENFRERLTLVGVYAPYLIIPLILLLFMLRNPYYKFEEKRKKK

[1] = molecular target: PCP binding site of the NMDA receptor; test: PCP binding site assay, radioligand [3H](+)-MK-801, pig brain preparations; details: n = 3, values without SEM mean of two experiments
[2] = molecular target: T2, ifenprodil binding site of NMDA receptors with GluN2B subunit (Homo sapiens, UniProt Q05586+Q13224); test: biochemical
T2 construct: expressed in transfected cells; host or cells: mouse L(tk-) cells, stably transfected, expression induced with dexamethasone; membrane homogenate

σ1 receptor [3] = molecular target: T3, σ1 receptor (Cavia porcellus, UniProt Q60492); test: biochemical
[4] = after 90 min incubation with mouse liver microsomes and NADPH
physchem = details: pH 7.4
κ-opioid receptor = κ-opioid receptor (Cavia porcellus, UniProt P41144); test: κ-opioid receptor binding study; details: read-out: inhibition of the radioligand binding, κ receptor
σ1 receptor [5] = molecular target: T3, σ1 receptor; details: for σ1:σ2 receptor selectivity: σ1 over σ2
µ-opioid receptor = µ-opioid receptor (Cavia porcellus, UniProt A0ACM8Q262); test: µ-opioid receptor binding study; details: read-out: inhibition of the radioligand binding, µ receptor
δ-opioid receptor = δ-opioid receptor (Rattus norvegicus, UniProt P33533); test: δ-opioid receptor binding study; details: read-out: inhibition of the radioligand binding, δ receptor
σ1 receptor [6] = molecular target: T3, σ1 receptor; details: earlier study; cited from earlier work
[7] = molecular target: PCP binding site of the NMDA receptor; details: earlier study; cited from earlier work
[8] = system: capsaicin mouse model of neuropathic pain; details: dose of 0.25 mg/kg body weight; cited from earlier work

T3 sequence (Q60492 whole entry): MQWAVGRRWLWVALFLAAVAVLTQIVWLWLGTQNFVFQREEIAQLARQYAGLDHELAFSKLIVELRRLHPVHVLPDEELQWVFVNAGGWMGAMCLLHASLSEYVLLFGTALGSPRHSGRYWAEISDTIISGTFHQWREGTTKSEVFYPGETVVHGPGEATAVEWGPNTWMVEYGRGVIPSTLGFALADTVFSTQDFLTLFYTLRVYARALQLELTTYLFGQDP
Sequence of κ-opioid receptor (P41144 whole entry): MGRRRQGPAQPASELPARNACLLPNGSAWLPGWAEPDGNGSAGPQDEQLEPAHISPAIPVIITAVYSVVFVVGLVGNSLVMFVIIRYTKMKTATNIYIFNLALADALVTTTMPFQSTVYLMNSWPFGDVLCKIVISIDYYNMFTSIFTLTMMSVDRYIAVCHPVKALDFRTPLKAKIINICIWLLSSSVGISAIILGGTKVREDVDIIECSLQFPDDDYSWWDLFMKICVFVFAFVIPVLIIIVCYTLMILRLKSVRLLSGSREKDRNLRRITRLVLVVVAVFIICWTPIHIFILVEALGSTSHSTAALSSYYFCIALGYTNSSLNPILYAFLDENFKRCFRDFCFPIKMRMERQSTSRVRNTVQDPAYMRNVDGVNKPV
Sequence of µ-opioid receptor (A0ACM8Q262 1-400): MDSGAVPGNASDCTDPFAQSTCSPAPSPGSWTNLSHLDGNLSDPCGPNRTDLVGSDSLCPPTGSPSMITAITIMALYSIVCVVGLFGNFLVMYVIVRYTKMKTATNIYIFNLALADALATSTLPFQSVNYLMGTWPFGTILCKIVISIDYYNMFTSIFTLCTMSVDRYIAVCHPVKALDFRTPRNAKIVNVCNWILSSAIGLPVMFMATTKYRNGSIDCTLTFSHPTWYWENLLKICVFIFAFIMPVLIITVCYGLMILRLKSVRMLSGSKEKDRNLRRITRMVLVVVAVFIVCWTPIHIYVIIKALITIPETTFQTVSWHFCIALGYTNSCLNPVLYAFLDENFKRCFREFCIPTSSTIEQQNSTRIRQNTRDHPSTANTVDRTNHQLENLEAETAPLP
T2 sequence (Q13224 27-1484, other chains not shown): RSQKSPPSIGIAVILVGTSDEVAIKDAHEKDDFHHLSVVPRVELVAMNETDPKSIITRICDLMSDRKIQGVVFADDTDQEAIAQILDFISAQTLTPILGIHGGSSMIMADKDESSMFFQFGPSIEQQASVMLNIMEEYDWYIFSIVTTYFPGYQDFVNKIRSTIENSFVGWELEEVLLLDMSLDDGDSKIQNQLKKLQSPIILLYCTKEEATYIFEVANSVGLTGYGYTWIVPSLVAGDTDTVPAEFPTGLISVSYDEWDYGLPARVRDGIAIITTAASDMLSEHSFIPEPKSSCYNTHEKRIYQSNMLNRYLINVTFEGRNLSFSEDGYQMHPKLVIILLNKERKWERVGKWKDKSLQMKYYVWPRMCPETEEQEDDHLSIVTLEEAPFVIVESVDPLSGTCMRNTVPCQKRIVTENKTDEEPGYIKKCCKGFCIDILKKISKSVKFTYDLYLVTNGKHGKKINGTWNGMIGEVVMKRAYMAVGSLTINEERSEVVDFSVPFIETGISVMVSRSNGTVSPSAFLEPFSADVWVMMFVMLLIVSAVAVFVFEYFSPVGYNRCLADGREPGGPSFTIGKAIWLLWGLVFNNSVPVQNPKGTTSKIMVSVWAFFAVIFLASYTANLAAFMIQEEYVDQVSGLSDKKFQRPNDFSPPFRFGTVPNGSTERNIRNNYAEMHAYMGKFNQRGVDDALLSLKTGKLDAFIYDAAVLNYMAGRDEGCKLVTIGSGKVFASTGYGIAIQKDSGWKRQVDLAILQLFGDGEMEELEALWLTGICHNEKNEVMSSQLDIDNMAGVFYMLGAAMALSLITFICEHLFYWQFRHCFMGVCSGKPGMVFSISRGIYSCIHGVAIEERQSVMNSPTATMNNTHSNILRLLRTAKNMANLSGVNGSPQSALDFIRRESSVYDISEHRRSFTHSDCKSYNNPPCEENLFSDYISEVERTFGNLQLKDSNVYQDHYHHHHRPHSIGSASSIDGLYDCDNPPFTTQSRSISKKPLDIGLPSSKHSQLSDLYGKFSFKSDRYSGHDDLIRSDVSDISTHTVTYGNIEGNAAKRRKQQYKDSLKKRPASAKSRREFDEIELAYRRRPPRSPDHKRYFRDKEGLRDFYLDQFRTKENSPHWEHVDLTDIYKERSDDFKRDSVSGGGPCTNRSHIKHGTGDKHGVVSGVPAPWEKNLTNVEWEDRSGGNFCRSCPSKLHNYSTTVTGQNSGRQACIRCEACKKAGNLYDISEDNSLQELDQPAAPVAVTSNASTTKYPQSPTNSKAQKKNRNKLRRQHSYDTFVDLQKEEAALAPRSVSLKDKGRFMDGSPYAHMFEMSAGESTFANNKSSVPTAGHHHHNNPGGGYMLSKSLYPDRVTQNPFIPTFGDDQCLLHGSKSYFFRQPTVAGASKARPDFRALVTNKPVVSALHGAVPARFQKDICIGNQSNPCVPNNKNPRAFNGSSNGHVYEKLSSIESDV
Sequence of δ-opioid receptor (P33533 whole entry): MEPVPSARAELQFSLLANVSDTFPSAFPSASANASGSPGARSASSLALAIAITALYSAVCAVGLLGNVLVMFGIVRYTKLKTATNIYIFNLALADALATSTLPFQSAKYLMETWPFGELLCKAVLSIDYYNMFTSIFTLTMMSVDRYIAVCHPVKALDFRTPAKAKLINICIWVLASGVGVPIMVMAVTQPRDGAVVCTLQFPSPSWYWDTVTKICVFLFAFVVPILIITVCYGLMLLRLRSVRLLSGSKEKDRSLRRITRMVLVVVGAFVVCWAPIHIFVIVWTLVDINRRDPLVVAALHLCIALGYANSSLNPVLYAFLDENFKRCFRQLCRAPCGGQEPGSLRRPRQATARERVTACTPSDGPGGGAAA

| Compound | Ki (σ2 receptor) [nM] | Ki [1] [nM] | Ki ([2]; read-out: Ki ± SEM GluN2B) [nM] | Ki (σ1 receptor [3]; Ki ± SEM σ1) [nM] | Metabolic Stability (5): amount of the remaining unmetabolized parent compound [4] | logD (physchem) | LLE (ligand-lipophilicity efficiency) (σ1 receptor [5]) | Ki (σ1 receptor [3]; pKi(σ1)) [nM] | further results |
| --- | --- | --- | --- | --- | --- | --- | --- | --- | --- |
| NCCCC[C@H]1CCO[C@@H](c2ccccc2)O1 (relative stereo) [14a, 4-(cis-2-Phenyl-1,3-dioxan-4-yl)butan-1-amine] | > 1000 | > 1000 | > 1000 | > 1000 | – | – | – | – | IC50 (σ1 receptor [3]): > 1000 nM |
| CC[C@]1(c2ccccc2)OCC[C@H](CCCCN)O1 (relative stereo) [14b, 4-(trans-2-Ethyl-2-phenyl-1,3-dioxan-4-yl)butan-1-amine] | > 1000 | 731 | > 1000 | > 1000 | – | – | – | – | IC50 (σ1 receptor [3]): > 1000 nM |
| CNCCCC[C@H]1CCO[C@@H](c2ccccc2)O1 (relative stereo) [16a, N-Methyl-4-(cis-2-phenyl-1,3-dioxan-4-yl)butan-1-amine] | > 1000 | > 1000 | > 1000 | 842 | – | – | – | – | – |
| CC[C@]1(c2ccccc2)OCC[C@H](CCCCNC)O1 (relative stereo) [16b, 4-(trans-2-Ethyl-2-phenyl-1,3-dioxan-4-yl)-N-methylbutan-1-amine] | 311 | > 1000 | > 1000 | 107 ± 5 | – | – | – | – | – |
| c1ccc(CNCCCC[C@H]2CCO[C@@H](c3ccccc3)O2)cc1 (relative stereo) [17a, N-Benzyl-4-(cis-2-phenyl-1,3-dioxan-4-yl)butan-1-amine] | 213 | > 1000 | > 1000 | 31 ± 4 | 56% and 56 ± 3% | 1.32 ± 0.04 | 6.19 | 30.9 | inhibition at 1 µM (κ-opioid receptor): 0%; selectivity for the σ1 receptor against the ifenprodil binding site (σ1 receptor [5]): > 30 fold; selectivity for the σ1 receptor over δ-opioid receptors (σ1 receptor [5]; σ1 over δ-opioid receptor): 9 fold; σ1:σ2 receptor selectivity (σ1 receptor [5]): approx. 7 fold; inhibition at 1 µM (µ-opioid receptor): 3% |
| CC[C@]1(c2ccccc2)OCC[C@H](CCCCNCc2ccccc2)O1 (relative stereo) [17b, N-Benzyl-4-(trans-2-ethyl-2-phenyl-1,3-dioxan-4-yl)butan-1-amine] | 22 ± 1.9 | 569 ± 141 | – | 14 ± 6.1 | 50 ± 4% | 2.65 ± 0.04 | 5.20 | 14.1 | inhibition at 1 µM (κ-opioid receptor): 0%; Ki [2]: 39 ± 13 nM |
| CN(CCCC[C@H]1CCO[C@@H](c2ccccc2)O1)Cc1ccccc1 (relative stereo) [18a, N-Benzyl-N-methyl-4-(cis-2-phenyl-1,3-dioxan-4-yl)butan-1-amine] | 31 ± 3.1 | > 1000 | 261 ± 54 | 6.3 ± 2.4 | 48 ± 4% | 2.49 ± 0.05 | 5.71 | 6.31 | inhibition at 1 µM (δ-opioid receptor): 0%; inhibition at 1 µM (κ-opioid receptor): 0%; selectivity for the σ1 receptor against the ifenprodil binding site (σ1 receptor [5]): > 40 fold; σ1:σ2 receptor selectivity (σ1 receptor [5]): 5 fold; inhibition at 1 µM (µ-opioid receptor): 0% |
| CC[C@]1(c2ccccc2)OCC[C@H](CCCCN(C)Cc2ccccc2)O1 (relative stereo) [18b, N-Benzyl-4-(trans-2-ethyl-2-phenyl-1,3-dioxan-4-yl)-N-methyl-butan-1-amine] | 24 ± 6.3 | > 1000 | – | 8.7 ± 3.6 | 36% and 36 ± 1% | 3.54 ± 0.06 | 4.52 | 8.71 | inhibition at 1 µM (δ-opioid receptor): 0%; inhibition at 1 µM (κ-opioid receptor): 0%; Ki [2]: 20 ± 3.3 nM; σ1:σ2 receptor selectivity (σ1 receptor [5]): 3 fold; inhibition at 1 µM (µ-opioid receptor): 0% |
| c1ccc([C@@H]2OCC[C@H](CCCCN3CCCC3)O2)cc1 (relative stereo) [19a, 1-[4-(cis-2-Phenyl-1,3-dioxan-4-yl)butyl]pyrrolidine] | > 1000 | > 1000 | > 1000 | 154 ± 8 | 55% and 55 ± 2% | 0.09 ± 0.05 | 6.72 | 155 | – |
| CC[C@]1(c2ccccc2)OCC[C@H](CCCCN2CCCC2)O1 (relative stereo) [19b, 1-[4-(trans-2-Ethyl-2-phenyl-1,3-dioxan-4-yl)butyl]pyrrolidine] | 57 ± 1.9 | > 1000 | – | 56 ± 19 | 62 ± 2% | 1.29 ± 0.05 | 5.96 | 56.2 | Ki [2]: 67 ± 18 nM |
| NC(CCC[C@H]1CCO[C@@H](c2ccccc2)O1)c1ccccc1 (relative stereo) [24a, 1-Phenyl-4-(cis-2-phenyl-1,3-dioxan-4-yl)butan-1-amine] | – | > 1000 | 1350 | > 1000 | – | – | – | – | – |
| CNC(CCC[C@H]1CCO[C@@H](c2ccccc2)O1)c1ccccc1 (relative stereo) [25a, N-Methyl-1-phenyl-4-(cis-2-phenyl-1,3-dioxan-4-yl)butan-1-amine] | > 1000 | > 1000 | 716 | 144 ± 26 | – | – | – | – | – |
| c1ccc(CNC(CCC[C@H]2CCO[C@@H](c3ccccc3)O2)c2ccccc2)cc1 (relative stereo) [26a, N-Benzyl-1-phenyl-4-(cis-2-phenyl-1,3-dioxan-4-yl)butan-1-amine] | 907 | > 1000 | > 1000 | 918 | – | – | – | – | – |
| c1ccc(C(CCC[C@H]2CCO[C@@H](c3ccccc3)O2)N2CCCC2)cc1 (relative stereo) [27a, 1-[1-Phenyl-4-(cis-2-phenyl-1,3-dioxan-4-yl)butyl]pyrrolidine] | > 1000 | > 1000 | 366 | 161 ± 59 | 76% and 76 ± 3% | 2.2 ± 0.07 | 4.59 | 162 | – |
| CCC1(c2ccccc2)OCCC(CCN)O1 (stereo not shown) [2a] | – | – | – | – | – | – | – | – | Ki (σ1 receptor [6]): 955 nM; Ki [7]: 19 nM |
| CCC1(c2ccccc2)OCCC(CCNCc2ccccc2)O1 (stereo not shown) [2b] | – | – | – | – | – | – | – | – | Ki (σ1 receptor [6]): 27 nM |
| CCC1(c2ccccc2)OCCC(CCCC(N)c2ccccc2)O1 (stereo not drawn) [24b, 4-(trans-2-Ethyl-2-phenyl-1,3-dioxan-4-yl)-1-phenylbutan-1-amine] | 170 | 524 | 136 ± 36 | 427 | – | – | – | – | – |
| CCC1(c2ccccc2)OCCC(CCCC(NC)c2ccccc2)O1 (stereo not drawn) [25b, 4-(trans-2-Ethyl-2-phenyl-1,3-dioxan-4-yl)-N-methyl-1-phenylbutan-1-amine] | 255 | > 1000 | 190 ± 39 | 58 ± 8.2 | – | – | – | – | – |
| CCC1(c2ccccc2)OCCC(CCCC(NCc2ccccc2)c2ccccc2)O1 (stereo not drawn) [26b, N-Benzyl-4-(trans-2-ethyl-2-phenyl-1,3-dioxan-4-yl)-1-phenylbutan-1-amine] | 139 | > 1000 | 257 ± 57 | 88 ± 43 | – | – | – | – | – |
| CCC1(c2ccccc2)OCCC(CCCC(c2ccccc2)N2CCCC2)O1 (stereo not drawn) [27b, 1-[4-(trans-2-Ethyl-2-phenyl-1,3-dioxan-4-yl)-1-phenylbutyl]pyrrolidine] | 64 ± 15 | > 1000 | – | 19 ± 0.6 | 55 ± 5% | 3.33 ± 0.08 | 4.39 | 19.1 | Ki [2]: 63 ± 20 nM |
| c1ccc(CNCCC2CCOC(c3ccccc3)O2)cc1 (stereo not shown) [compound 1] | – | – | – | – | – | – | – | – | analgesic activity [8]: 70% |
| c1ccc(CNCCC2CCCC(c3ccccc3)O2)cc1 (stereo not shown) [compound 3] | – | – | – | – | – | – | – | – | Ki (σ1 receptor [6]): 6.4 nM |
| c1ccc(CNCCCC2CCOC(c3ccccc3)O2)cc1 (stereo not shown) [compound 4] | – | – | – | – | – | – | – | – | Ki (σ1 receptor [6]): 164 nM |
| CC[C@]1(c2ccccc2)OC[C@H]([C@@H]2CCCCN2)O1 [etoxadrol] | – | – | – | – | – | – | – | – | Ki [7]: 22 nM |
